Test results reported in patent US20190040004A1, “NEW COMPOUNDS FOR THE TREATMENT AND/OR PREVENTION OF PARASITIC DISEASES AND METHOD OF PRODUCTION OF THEREOF” (INSTITUT DE RECHERCHE POUR LE DEVELOPPEMENT (I.R.D.), priority 2013, published 2019).
Entries after “also recorded” stand apart in the source; their conditions may differ. Like-named read-outs stand apart in the source and are kept apart here.

Assays:
recombinant HDAC3 = recombinant HDAC3 (Homo sapiens, UniProt O15379); assay: Recombinant HDAC3 inhibition; assay type: biochemical
recombinant HDAC6 = biological target: T1, recombinant HDAC6 (Homo sapiens, UniProt Q9UBN7); assay: Recombinant HDAC6 inhibition; assay type: biochemical
T1 sequence (Q9UBN7 1-1215): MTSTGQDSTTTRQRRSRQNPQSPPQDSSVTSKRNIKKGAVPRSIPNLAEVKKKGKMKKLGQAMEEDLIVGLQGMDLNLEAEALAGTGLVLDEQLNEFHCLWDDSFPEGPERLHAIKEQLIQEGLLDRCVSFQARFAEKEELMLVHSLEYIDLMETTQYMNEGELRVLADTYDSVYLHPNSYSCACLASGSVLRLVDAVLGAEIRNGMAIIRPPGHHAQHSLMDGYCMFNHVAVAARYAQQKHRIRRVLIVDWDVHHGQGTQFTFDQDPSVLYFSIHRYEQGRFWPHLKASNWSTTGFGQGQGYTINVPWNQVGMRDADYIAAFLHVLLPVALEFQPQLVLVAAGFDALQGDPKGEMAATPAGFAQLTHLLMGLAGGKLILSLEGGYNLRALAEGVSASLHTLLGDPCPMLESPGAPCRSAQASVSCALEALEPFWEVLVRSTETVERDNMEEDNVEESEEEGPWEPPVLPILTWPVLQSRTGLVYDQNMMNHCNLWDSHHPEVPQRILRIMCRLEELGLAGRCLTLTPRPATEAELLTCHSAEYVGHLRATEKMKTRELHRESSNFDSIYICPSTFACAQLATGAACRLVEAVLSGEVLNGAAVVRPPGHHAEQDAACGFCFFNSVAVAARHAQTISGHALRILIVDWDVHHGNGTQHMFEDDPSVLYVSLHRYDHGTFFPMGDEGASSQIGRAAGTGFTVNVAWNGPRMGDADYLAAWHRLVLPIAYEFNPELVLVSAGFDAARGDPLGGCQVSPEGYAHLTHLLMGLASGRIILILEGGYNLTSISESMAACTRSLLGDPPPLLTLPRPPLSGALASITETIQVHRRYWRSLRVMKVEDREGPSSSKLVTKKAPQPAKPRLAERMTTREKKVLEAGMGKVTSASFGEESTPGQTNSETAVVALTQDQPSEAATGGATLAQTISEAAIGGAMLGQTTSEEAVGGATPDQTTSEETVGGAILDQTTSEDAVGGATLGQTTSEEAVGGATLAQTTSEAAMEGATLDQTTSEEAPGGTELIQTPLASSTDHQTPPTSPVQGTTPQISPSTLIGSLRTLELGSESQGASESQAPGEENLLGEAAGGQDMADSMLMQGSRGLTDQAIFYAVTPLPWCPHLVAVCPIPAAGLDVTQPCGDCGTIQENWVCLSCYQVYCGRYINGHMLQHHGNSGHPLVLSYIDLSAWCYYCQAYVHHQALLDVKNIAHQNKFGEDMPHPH

[1] = system: HDAC activity from HELA nuclear extract; assay: Fluorimetric HDAC assay, HeLa nuclear extract; assay type: biochemical, human; details: read-out: IC50 (better HDAC inhibitor among 9 tested compounds)
Protocol: (§1) HDAC inhibitory activity was determined by a fluorimetric HDAC assay kit (Active-motif, Belgium), according to manufacturer's instructions. […] Fluorogenic substrate (10 μL) was added, reaction was allowed to proceed for 30 min at room temperature, then stopped by the addition of a developer containing Tichostatin A.

[2] = system: T2, HDAC activity from HELA nuclear extract; assay: Fluorimetric HDAC assay, HeLa nuclear extract; assay type: biochemical, human; details: 600 nM; HELA nuclear extract and HDAC-recombinant proteins
T2 construct: other: 600 nM; HELA nuclear extract and HDAC-recombinant proteins
Protocol: as §1

[3] = system: T3, HDAC activity from HELA nuclear extract; assay: Fluorimetric HDAC assay, HeLa nuclear extract; assay type: biochemical, human
T3 construct: HELA Nuclear extracts IC50; other: HeLa nuclear extract, fluorimetric HDAC kit; […]
Protocol: as §1

recombinant HDAC 8 = biological target: T4, recombinant HDAC 8 (Homo sapiens, UniProt Q9BY41); assay: Recombinant HDAC8 inhibition; assay type: biochemical
T4 sequence (Q9BY41 1-377): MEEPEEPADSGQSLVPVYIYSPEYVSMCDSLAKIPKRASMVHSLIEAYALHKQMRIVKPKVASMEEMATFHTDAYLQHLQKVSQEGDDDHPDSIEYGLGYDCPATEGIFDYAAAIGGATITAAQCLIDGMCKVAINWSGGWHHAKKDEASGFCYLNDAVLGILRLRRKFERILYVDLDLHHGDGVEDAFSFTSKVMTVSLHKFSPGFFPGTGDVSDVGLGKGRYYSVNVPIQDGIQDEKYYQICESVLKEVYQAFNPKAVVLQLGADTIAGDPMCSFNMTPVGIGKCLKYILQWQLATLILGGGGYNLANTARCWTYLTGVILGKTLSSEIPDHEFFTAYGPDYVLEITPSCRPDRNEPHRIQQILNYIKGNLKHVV

HFF cells = assay: MTT cytotoxicity on HFF host cells; assay type: cell-based; details: for HFF LD50: human
Protocol: (§2) Antiparasitic activity of a compound is represented by ICo50, which is calculated with Prism software (Prism4 for MacOSX Version 5.0b, December 2008). The cytoxicity of a compound against the host cells of L. infantum and T. gondii, such as THP-1 or HFF cells, was determined with a MTT assay, according to previously described protocol (Sereno et al., Antimicrob Agents Chemother. 2001, 45(4):1168-73). THP-1 is derived from the peripheral blood ofa human with acute monocytic leukemia.

recombinant HDAC1 = recombinant HDAC1 (Homo sapiens, UniProt Q13547); assay: Recombinant HDAC1 inhibition; assay type: biochemical
Protocol: FIG. 2 illustrates the capacity of the different compounds of 600 nM to inhibit HDAC activity from HELA nuclear extract and from HDAC-recombinant proteins (HDAC 1, HDAC 3, HDAC 6, HDAC 8).
HDAC inhibitory activity was determined by a fluorimetric HDAC assay kit (Active-motif, Belgium), according to manufacturer's instructions. Briefly, 30 μL of HeLa nuclear extract were mixed with 5 μL of 10× compound to be tested and 10 μL of assay buffer. Fluorogenic substrate (10 μL) was added, reaction was allowed to proceed for 30 min at room temperature, then stopped by the addition of a developer containing Tichostatin A. Fluorescence was monitored after 30 min at excitation and emission wavelengths of 360 and 460 nm, respectively. […].

[4] = system: deacetylase activity in total protein extracts of T. gondii; assay: Deacetylase activity in total protein extracts of T. gondii; assay type: biochemical; details: 125 nM
[5] = system: type II Prugniaud parasites; assay: Type II Prugniaud Toxoplasma proliferation in HFF; assay type: cell-based, Toxoplasma gondii; details: 0.025 to 0.8 uM, 24 h
Protocol: (§3) To compare the activity of compounds according to the invention to that of prior art on toxoplasma proliferation, human foreskin fibroblasts (HFF) were plated in 96-wells plate (10 000 cells per well). Twenty-four hours later, cells were infected with 40 000 parasites, either RH-YFP type I or type II Prugniaud parasites or tachyzoites (kindly provided by B. Striepen, Athens) for one hour. Cells were then washed and drugs (compound D16 of formula
(§4) (FIG. 4 and FIG. 5) or compound according to the invention (363) (FIG. 6) added at various concentrations ranging from 0.025 to 0.8 uM. After 24 h, cells were washed and fixed (PBS-formaldehyde 2%) and nucleus stained with Hoechst 33258 (2 μg/ml). The number of infected cells ie. cells harbouring a parasitophorous vacuole and the number of parasites per vacuole was determined using an Olympus ScanR microscope (Olympus).

THP-1 cells = assay: MTT cytotoxicity on THP-1 host cells; assay type: cell-based
Protocol: as §2

Babesia = Babesia proliferation; assay type: cell-based
[6] = system: T. gondii (GFP expressing parasites) in HFF; assay: T. gondii proliferation in human foreskin fibroblasts; assay type: cell-based, Toxoplasma gondii; details: Toxoplasma gondii, Fibroblast, 24 h, 24 h
Protocol: To assess the drug activity on toxoplasma proliferation, human foreskin fibroblasts (HFF) were infected with GFP expressing parasites for 30 mns (Striepen et al., Mol Biochem Parasitol. 1998, 92(2):325-38). Cells were then washed and drugs added at various concentrations ranging from 0.1 to 10 uM. After 24 h, cells were washed and fixed (PBS-formaldehyde 2%) and nucleus stained with Hoechst 33258 (2 μg/ml). The number of infected cells i.e cells harbouring a parasitophorous vacuole and the number of parasites per vacuole were determined using an Olympus ScanR microscope (Olympus).
as §2

type I RH-YFP parasites = assay: RH-YFP type I Toxoplasma proliferation in HFF; assay type: cell-based, Toxoplasma gondii; details: 0.025 to 0.8 uM, 24 h
Protocol: as §3, §4

[7] = HeLa nuclear extract, fluorimetric HDAC kit, read-out: HELA Nuclear extracts IC50
[8] = HFF infected, read-out: T. gondi IC50

recombinant HDAC1, sequence (Q13547 whole entry): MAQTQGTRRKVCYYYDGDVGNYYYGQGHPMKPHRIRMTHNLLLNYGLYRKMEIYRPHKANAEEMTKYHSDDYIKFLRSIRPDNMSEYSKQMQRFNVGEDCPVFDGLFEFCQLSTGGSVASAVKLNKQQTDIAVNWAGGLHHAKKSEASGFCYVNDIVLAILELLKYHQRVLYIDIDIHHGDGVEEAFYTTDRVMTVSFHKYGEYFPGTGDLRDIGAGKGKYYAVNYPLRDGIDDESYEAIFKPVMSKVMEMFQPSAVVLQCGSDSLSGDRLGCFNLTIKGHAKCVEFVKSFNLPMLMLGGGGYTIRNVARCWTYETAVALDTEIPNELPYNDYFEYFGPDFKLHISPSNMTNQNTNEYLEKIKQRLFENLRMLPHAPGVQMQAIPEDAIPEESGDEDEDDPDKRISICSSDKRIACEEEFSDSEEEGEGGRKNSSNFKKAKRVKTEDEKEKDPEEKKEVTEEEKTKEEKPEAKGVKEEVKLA
recombinant HDAC3, sequence (O15379 whole entry): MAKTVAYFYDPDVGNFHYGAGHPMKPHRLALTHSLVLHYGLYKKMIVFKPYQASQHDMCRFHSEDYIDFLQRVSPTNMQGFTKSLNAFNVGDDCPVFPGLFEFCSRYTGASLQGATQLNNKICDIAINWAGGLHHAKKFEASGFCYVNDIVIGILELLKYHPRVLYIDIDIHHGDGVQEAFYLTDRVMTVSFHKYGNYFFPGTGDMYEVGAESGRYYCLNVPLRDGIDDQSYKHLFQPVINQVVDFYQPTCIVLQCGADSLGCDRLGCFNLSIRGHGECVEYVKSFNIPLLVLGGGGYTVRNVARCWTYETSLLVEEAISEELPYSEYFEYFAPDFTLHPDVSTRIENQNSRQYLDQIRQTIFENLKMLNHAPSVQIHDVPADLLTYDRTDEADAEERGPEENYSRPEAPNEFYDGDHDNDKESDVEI
recombinant HDAC3, sequence (Q9Y618 395-489 partner limits assumed): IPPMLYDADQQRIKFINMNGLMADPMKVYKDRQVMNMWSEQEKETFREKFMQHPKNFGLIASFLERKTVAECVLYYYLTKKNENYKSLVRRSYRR

SMILES	IC50 (recombinant HDAC6) [nM]	IC50 [3, 7] [nM]	IS Selectivity index LD50 (HFF)/IC50 T. gondii (HFF cells)	HFF LD50 (HFF cells) [µM]	inhibitory activity on type II Prugniaud parasites proliferation, in words [5]	IS Selectivity index LD50 (THP-1)/IC50 T. gondii (THP-1 cells)	THP-1 LD50 (THP-1 cells; human) [µM]	IC50 [6, 8] [nM]	other results
COc1cccc(CC(=O)Nc2ccc(C(=O)NO)cc2)c1 [Compound 363]	45	85	300	105 ± 10.5	potent inhibitory effect; also recorded: potent inhibitory activity	10.3	3.6 ± 0.5		IC50 (recombinant HDAC3): 160 nM; IC50 [1]: 3600 nM; inhibition of human HDAC activity (FIG. 2), in words [2]: most potent inhibitor; IC50 (recombinant HDAC 8): 863 nM; IC50 (recombinant HDAC1): 257 nM; inhibitory effect on deacetylase activity of T. gondii extracts, in words [4]: strong inhibitory effect; inhibition of T. gondii deacetylase activity ([4]; total protein extracts): 44%; IC50 (Babesia): ~1000 nM
O=C(NO)c1ccc(NC(=O)c2cccc(F)c2)cc1 [Compound 349]		633		>400			264 ± 8.0	> 50000	
O=C(NO)c1ccc(NS(=O)(=O)c2cccc(F)c2)cc1 [Compound 351]		881	2.3	116.5 ± 35		1.53			IC50 ([6]; read-out: T. gondi IC50, HFF infected, 24 h): 50000 nM
COc1ccccc1CNC(=O)c1ccc(C(=O)NO)cc1 [Compound D16, reference compound]	198	7740			no inhibitory activity				IC50 (recombinant HDAC1; read-out: IC50 recombinant HDAC 1): > 10000 nM; inhibitory activity on type I RH-YFP parasites proliferation, in words (type I RH-YFP parasites): lack of inhibitory effect; also recorded: no inhibitory activity; inhibitory activity on type II Prugniaud parasites proliferation, in words ([5]; listed as Dl6): lack of inhibitory effect
O=C(CCCCCCC(=O)Nc1ccccc1)NO [SAHA, suberoylanilide hydroxamic acid, reference compound]									THP-1 LD50 (THP-1 cells; MTT cytotoxicity): >200 µM
O=C(NO)c1ccc(CNS(=O)(=O)c2cccc(F)c2)cc1 [Compound 350]		8610	7.5	300.0 ± 50.0		10	>400	40000	IC50 ([3]; text summary of Table 1, less active compounds, read-out: HDAC inhibitory activity against HeLa cell nuclear extract): ~1000 nM
